Test results: patent US6806275B2, “Arylpiperidine derivatives and use thereof” (Nihon Nohyaku Co., Ltd., priority 1998, dated 2004)

Legend:
[1] = biological target: T1, human D4.2 receptor (Homo sapiens, UniProt P21917, DEL265-296); test: Dopamine D4 receptor binding assay ([3H]spiperone); conditions: CHO cell membrane expressing human D4.2 receptor; [3H]spiperone 0.5 nM; 27° C., 2 hours
T1 construct: expressed in transfected cells; host or cells: CHO cells (membrane preparation)
T1 sequence (P21917 with tags, fused parts or gaps DEL265-296): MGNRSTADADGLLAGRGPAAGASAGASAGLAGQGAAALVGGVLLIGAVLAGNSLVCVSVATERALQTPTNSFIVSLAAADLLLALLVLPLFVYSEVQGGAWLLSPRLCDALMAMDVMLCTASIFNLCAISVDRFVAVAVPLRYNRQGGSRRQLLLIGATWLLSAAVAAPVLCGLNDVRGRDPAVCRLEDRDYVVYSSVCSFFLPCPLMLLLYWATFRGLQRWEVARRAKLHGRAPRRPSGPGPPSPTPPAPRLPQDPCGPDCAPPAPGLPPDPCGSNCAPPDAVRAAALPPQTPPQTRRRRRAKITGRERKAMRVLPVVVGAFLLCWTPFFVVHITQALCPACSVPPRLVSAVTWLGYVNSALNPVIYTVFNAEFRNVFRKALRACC
Experimental: 1. Dopamine D4 Receptor Binding Assay
Chinese hamster ovarium (CHO) cell membrane wherein human D4.2 receptor was expressed was used as a receptor preparation.
[^3H] spiperone was used as a [^3H]-labeled ligand.
Human D4.2 receptor binding assay: The (CHO) cell membrane wherein human D4.2 receptor was expressed, [^3H] spiperone (0.5 nM) and each test drug were incubated at 27° C. for 2 hours in 50 mM Tris-hydrochloric acid buffer (pH 7.4) containing 5 mM EDTA, 1.5 mM calcium chloride, 5 mM potassium chloride and 120 mM sodium chloride.
(§1) After completion of the reaction, the reaction mixture was filtered by suction through a glass filter (GF/B), and radioactivity in the filter paper was measured with a liquid scintillation spectrometer.
Binding under the reaction of [^3H] spiperone carried out in the presence of 10 μM haloperidol was defined as nonspecific binding of [^3H] spiperone, and the difference between the total binding and the nonspecific binding was defined as specific binding.

[2] = biological target: T2, Dopamine D2 receptor (rat striatum membrane) (Rattus norvegicus, UniProt P61169); test: Dopamine D2 receptor binding assay ([3H]raclopride); conditions: [3H]raclopride 1 nM, 25° C., 1 hour
T2 construct: Rat striatum was homogenized in 50 mM Tris-hydrochloric acid buffer (pH 7.4); from tissue; host or cells: rat striatum
Experimental: 2. Dopamine D2 Receptor Binding Assay
Rat striatum membrane was used as a receptor preparation.
[^3H] raclopride was used as a [^3H]-labeled ligand.
Preparation of the receptor preparation: Rat striatum was homogenized in 50 mM Tris-hydrochloric acid buffer (pH 7.4), and the homogenate was centrifuged at 48,000×g and the pellet was washed once with Tris-hydrochloric acid buffer. The washed pellet was suspended in 50 mM Tris-hydrochloric acid buffer (pH 7.4) containing 120 mM sodium chloride, 5 mM potassium chloride, 2 mM calcium chloride and 1 mM magnesium chloride, to obtain a membrane preparation.
Dopamine D2 receptor binding assay: The membrane preparation (0.5 mg protein/ml), [^3H] raclopride (1 nM) and each test drug were incubated at 25° C. for 1 hour.
as §1
Binding under the reaction of [^3H] raclopride carried out in the presence of 10 μM haloperidol was defined as nonspecific binding of [^3H] lacropirido, and the difference between the total binding and the nonspecific binding was defined as specific binding.

T2 sequence (P61169 whole entry): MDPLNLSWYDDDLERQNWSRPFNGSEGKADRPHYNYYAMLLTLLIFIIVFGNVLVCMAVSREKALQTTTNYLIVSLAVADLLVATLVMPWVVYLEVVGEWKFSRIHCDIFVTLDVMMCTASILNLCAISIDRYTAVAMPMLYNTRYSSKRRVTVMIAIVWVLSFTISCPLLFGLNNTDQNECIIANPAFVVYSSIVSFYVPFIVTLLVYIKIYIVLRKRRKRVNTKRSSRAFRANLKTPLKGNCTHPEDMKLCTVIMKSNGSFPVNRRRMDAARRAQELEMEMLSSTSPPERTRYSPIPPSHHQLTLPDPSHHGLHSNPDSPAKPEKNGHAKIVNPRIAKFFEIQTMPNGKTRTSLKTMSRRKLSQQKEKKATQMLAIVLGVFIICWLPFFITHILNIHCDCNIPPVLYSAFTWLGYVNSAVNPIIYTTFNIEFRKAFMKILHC

Row | SMILES | IC50 [1] | IC50 [2] | melting point
1 | Nc1nc(-c2ccc(F)cc2)c(CCN2CCC(c3coc4cc(F)ccc34)CC2)s1 [B-01, 2-amino-4-(4-fluorophenyl)-5-[2-[4-(6-fluorobenzofuran-3-yl)piperidin-1-yl]ethyl]thiazole] | 3.1 nM | 67.3 nM | 
2 | Oc1nc(-c2ccc(F)cc2)c(CCN2CCC(c3coc4cc(F)ccc34)CC2)s1 [B-06, 2-hydroxy-4-(4-fluorophenyl)-5-[2-[4-(6-fluorobenzofuran-3-yl)piperidin-1-yl]ethyl]thiazole] |  |  | 186 to 188 °C
3 | Nc1nc(-c2ccc(F)cc2)c(CCN2CCC(c3c[nH]c4ccccc34)CC2)s1 [B-09] | 2 nM | 81.1 nM | 203 to 203.5 °C
4 | Cc1nc(-c2ccc(F)cc2)c(CCN2CCC(c3c[nH]c4ccccc34)CC2)s1 [B-11] | 0.4 nM | 26.6 nM | 165 to 167 °C
5 | Nc1nc(-c2ccc(F)cc2)c(CCN2CCC(n3cnc4cc(F)ccc43)CC2)s1 [B-25] | 32 nM | > 1000 nM | 282 to 284 °C
6 | Nc1nc(-c2ccc(F)cc2)c(CCN2CCC(n3nnc4cc(F)ccc43)CC2)s1 [B-26, 2-amino-4-(4-fluorophenyl)-5-[2-[4-(5-fluoro-1H-benzotriazol-1-yl)piperidin-1-yl]ethyl]thiazole] | 5.5 nM | 298 nM | 
7 | Cc1nc(-c2ccc(F)cc2)c(CCN2CCC(n3nnc4cc(F)ccc43)CC2)s1 [B-29] | 2.4 nM | 206 nM | 145 to 146 °C
8 | CSc1nc(-c2ccc(F)cc2)c(CCN2CCC(n3nnc4cc(F)ccc43)CC2)[nH]1 [C-03, 2-methylthio-4-(4-fluorophenyl)-5-[2-[4-(5-fluoro-1H-benzotriazol-1-yl)piperidin-1-yl]ethyl]imidazole] |  |  | 223 to 224 °C
9 | Fc1ccc(-c2[nH]ncc2CCN2CCC(c3csc4cc(F)ccc34)CC2)cc1 [Example 10, 5-(4-fluorophenyl)-4-[2-[4-(6-fluorobenzo[b]thiophen-3-yl)piperidin-1-yl]ethyl]pyrazole] |  |  | 162 to 163 °C
10 | Fc1ccc(-c2ncncc2CCN2CCC(c3csc4cc(F)ccc34)CC2)cc1 [Example 11, 6-(4-fluorophenyl)-5-[2-[4-(6-fluorobenzo[b]thiophen-3-yl)piperidin-1-yl]ethyl]pyrimidine] |  |  | 123 to 124 °C
